According to patent US7589077B2, “Antiviral nucleosides” (priority 2001, dated 2009):
Like-named read-outs stand apart in the source and are kept apart here.

Columns and labels:
human HBV = assay: HBV DNA replication in HepG2 2.2.15 cells; assay type: cell-based, hepatitis B virus; conditions: Table 3a; read-out: % Inhibition of human HBV DNA replication in HepG2 2.2.15 cells EC50
Experimental: The compounds were assayed for a) their ability to inhibit DHBV DNA replication in duck hepatocytes, b) their ability to inhibit HBV DNA replication in HepG2 2.2.15 cells, c) the cell cytotoxicity in Vero cells, the cell viability in HFF cells, d) the cell proliferation in HFF cells, and e) the T cell proliferation (purified T cells, PHA stimulated). 3-TC was used as a control. Additional compounds described below in the Preparative Examples section were also tested, and the results are shown in Tables 2-4 below. The reference numbers for the compounds are found in the Preparative Examples.

HFF cells = assay: Cell viability in HFF cells (neutral red); assay type: cell-based, human
Experimental: Twenty-four hours prior to assay HFF cells were plated into 96 well plates at a concentration of 2.5×10^4 cells per well. […] The plates were incubated for 7 days in a CO2 incubator at 37° C. At this time the media/drug was aspirated and 200 μL/well of 0.01% neutral red in Dulbecco's Phosphate Buffered Saline (DPBS) was added. This was incubated in the CO2 incubator for 2 h, the dye was aspirated and the cells were washed using a Nunc Plate Washer. After removing the DPBS wash, […] of 50% EtOH: 1% glacial acetic acid in water was added. The plates were rotated for 15 min. and the optical densities were read at 550 nm on a plate reader.

CEM cells = assay: Cell cytotoxicity in CEM cells; assay type: cell-based; conditions: Table 3a
VZV (Ellen) = assay: CPE inhibition assay VZV (Ellen) in HFF cells; assay type: cell-based, varicella zoster virus
Experimental: (§1) Cytopathic effect (CPE) inhibition assays for HSV-1, HSV-2, HCMV and VZV were performed as follows: Low passage human foreskin fibroblasts (HFF) cells were seeded into 96 well tissue culture plates 24 h prior to use at a cell concentration of 2.5×10^4 cells per mL in 0.1 mL of minimal essential medium (MEM) supplemented with 10% fetal bovine serum (FBS). The cells were then incubated for 24 h at 37° C. in a CO2 incubator. After incubation, the medium was removed and 100 μL of MEM containing 2% FBS was added to all but the first row. In the first row, 125 μL of experimental drug was added in triplicate wells. Medium alone was added to both cell and virus control […]. After incubation, the medium was removed and 100 μl of MEM containing 2% FBS was added to all but the first row. Medium alone was added to both cell and virus control wells. 125 μl of Experimental drug was added in triplicate wells. The drug in the first row of wells was then diluted serially 1:5 throughout the remaining wells by transferring 25 μL using the Cetus Liquid Handling Machine. After dilution of drugs, 100 μL of the appropriate virus concentration was added to each well, excluding the cell control wells which received 100 μL of MEM. For HSY-1 and HSV-2 assays, the virus concentration utilized was 1000 PFU's per well. For CMV and VZV assays, the virus concentration added was 2500 PFU's per well. The plates were then incubated at 37° C. in a CO2 incubator for 3 days for HSV-1 and HSV-2, 10 days for VZV, or 14 days for CMV. After the incubation period, media was aspirated and the cells stained with a 0.1% crystal violet solution for 30 min. The stain was then removed and the plates were allowed to dry 24 h and then read on a Skatron Plate Reader at 620 nm.

Epstein-Barr Virus (EBV) = assay: EBV immunofluorescence assay in DAUDI cells (P3HR-1 strain); assay type: cell-based
Experimental: The immunofluorescence assay, using monoclonal antibodies, for Epstein-Barr Virus (EBV) was performed as follows: DAUDI cells were infected with the P3HR-1 strain of EBV and the test drug was added after adsorption (45 min. at 37° C.) and washing of the cell cultures. These cultures were then incubated for 2 days in complete medium to allow viral gene expression. Following the 48 h incubation period, the number of cells in each sample were counted and smears were made. Monoclonal antibodies to the different early antigen (EA) components and VCA were than added to the cells, incubated and washed. This was followed by the addition of a fluorescein conjugated rabbit anti mouse Ig antibodies. The number of fluorescence positive cells in the smears were counted and the total number of cells in the cultures positive for EA or VCA were then calculated and compared.

[1] = test system: duck hepatitis B virus (DHBV); assay: DHBV DNA replication in primary duck hepatocytes (dot blot hybridization); assay type: cell-based
Experimental: A series of compounds were synthesized and assayed for activity against duck hepatitis B virus (DHBV). […] Test compounds were added to the hepatocyte cultures on day 2 and maintained in culture with media changed every second day until day 12. Cell were harvested at day 14 and lysed with buffer containing 1% SDS. DNA was isolated from the lysate and dot blot hybridization was performed using a DHBV (32P) DNA probe. […]
(§2) The compounds were assayed for a) their ability to inhibit DHBV DNA replication in duck hepatocytes, b) their ability to inhibit HBV DNA replication in HepG2 2.2.15 cells, c) the cell cytotoxicity in Vero cells, the cell viability in HFF cells, d) the cell proliferation in HFF cells, and e) the T cell proliferation (purified T cells, PHA stimulated). 3-TC was used as a control.

Vero cells = assay: Cell cytotoxicity in Vero cells; assay type: cell-based; conditions: Table 1
Experimental: as §2

whole human PBLs = assay: Cell proliferation, whole human PBLs; assay type: cell-based; conditions: Table 1
HSV-1 (KOS) HSV-TK+ = HSV-1 (KOS) HSV-TK+ antiviral assay; assay type: cell-based, Herpes simplex virus type-1; conditions: Table 4
Experimental: as §1

HSV-1 (KOSSB) HSV-TK− = assay: microbe, parasite or virus in culture; assay type: cell-based, Herpes simplex virus type-1; conditions: Table 4
Experimental: as §1, with “The” for “Cytopathic effect (CPE) inhibition assays for HSV-1, HSV-2, HCMV and VZV were performed as follows: Low passage human foreskin fibroblasts (HFF) cells were seeded into 96 well tissue culture plates 24 h prior to use at a cell concentration of 2.5×10^4 cells per mL in 0.1 mL of minimal essential medium (MEM) supplemented with 10% fetal bovine serum (FBS). The”

HSV-1 (E-377) = assay: CPE inhibition assay HSV-1 (E-377) in HFF cells; assay type: cell-based, Herpes simplex virus type-1; conditions: Table 4
Experimental: as §1

HSV-2 (MS) = assay: CPE inhibition assay HSV-2 (MS) in HFF cells; assay type: cell-based, Herpes simplex virus type-2; conditions: Table 4
Experimental: as §1

HCMV (AD169) = assay: CPE inhibition assay HCMV (AD169) in HFF cells; assay type: cell-based, human cytomegalovirus; conditions: Table 4
Experimental: as §1

Molecule	EC50 (human HBV)	CC50 (HFF cells; Table 3a, read-out: Cell viability HFF cells CC50)	CC50 (CEM cells)	VZV (Ellen) EC50 (VZV (Ellen); Table 3a)	EBV EC50 (Epstein-Barr Virus (EBV); Table 3a)	EBV EC90 (Epstein-Barr Virus (EBV); Table 3a, in parentheses)	% Inhibition of DHBV DNA replication in duck hepatocytes @10 μg/ml [1]	CC50 (Vero cells)	CC50 (HFF cells; Table 1, read-out: Cell viability, HFF cells, CC50 μM)	IC50 (whole human PBLs)	HSV-1 (KOS) HSV-TK+ EC50 (HSV-1 (KOS) HSV-TK+)	HSV-1 (KOSSB) HSV-TK− EC50 (HSV-1 (KOSSB) HSV-TK−)	HSV-1 (E-377) EC50, μg/ml (HSV-1 (E-377))	HSV-2 (MS) EC50 (HSV-2 (MS))	VZV (Ellen) EC50 (VZV (Ellen); Table 4)	HCMV (AD-169) EC50 (HCMV (AD169))	EBV EC50 (Epstein-Barr Virus (EBV); Table 4)
CCO[C@@H]1C(Cl)C(=O)NC(=O)N1[C@H]1C[C@H](F)[C@@H](CO)O1 (single isomer, unassigned; (+)) [RB-2]	2.8 µM	> 330 µM	> 200 µM	0.3 µg/mL	0.15 to 0.3 µg/mL	9.8 µg/mL	–	–	–	–	–	–	–	–	–	–	–
(5R,6R)5-fluoro-O^6-5′-cyclo-5,6-dihydro-3′-azido-3′-deoxythymidine [Compound R-14]	–	–	–	–	–	–	81.0%	100 to 200 µM	> 350 µM	> 350 µM	>25 µg/mL	>50 µg/mL	>100 μg/ml	>100 µg/mL	>100 µg/mL	>100 µg/mL	<0.08 µg/mL
